Assay [1] relates to GK rats with spontaneous diabetes. As to the kind of experiment: Test Example 2: measurement of nerve conduction velocity in GK rats with spontaneous diabetes. The settings on record: for Nerve conduction velocity (m/sec) Before administration / Nerve conduction velocity (m/sec) 4 weeks later: GK rats; for Nerve conduction velocity (m/sec) Before administration: baseline before oral administration. It is filed as in vivo. As for the experimental part: (§1) At the test method was to use four groups, i.e., one group of Wistar rats as control, two groups of GK rats with spontaneous diabetes administered by the test substance and one group of the GK rats not administered by the test substance. Before testing, glucose tolerance and nerve conduction velocity were measured. Then the test substance was orally given for 4 weeks (one group at a dose of 30µg/-Kg/day and another group at a dose of 300µg/Kg/day), and the animals were then checked for glucose tolerance and nerve conduction velocity.
In similar way to Test Example 1, variations in nerve conduction velocity were measured for (17S)-17,20-dimethylisocarbacyclin methyl ester [=(17S)-17,20-dimethyl-9(0)-methano-Δ^6(9α)-prostaglandin I₁ methyl ester as test substance.

Assay [2] shares this test system. In words: Test Example 1: measurement of nerve conduction velocity in GK rats with spontaneous diabetes. It is filed as in vivo. To be noted: for Nerve conduction velocity (m/sec) Before administration: baseline before oral administration.
Text: A test substance, (17S)-17,20-dimethylisocarbacyclin [=(17S)-17,20-dimethyl-9(0)-methano-Δ^6(9α)-prostaglandin I₁] was used to observe any improvement effect on nervous disorder of GK rats with spontaneous diabetes.
as §1

The mark [3] stands for this setting: 300µg/Kg/day orally for 4 weeks.

Take `CCCC[C@H](C)C[C@H](O)/C=C/[C@@H]1[C@H]2CC(CCCCC(=O)OC)=C[C@H]2C[C@H]1O` [(17S)-17,20-dimethyl-9(0)-methano-Δ^6(9α)-prostaglandin I₁ methyl ester]: the “Nerve conduction velocity (m/sec) Before administration” value is 30.9 ± 1.0 m/sec in assay [1] (30µg/Kg/day group) and 32.4 ± 0.7 m/sec in assay [1] (300µg/Kg/day group). Besides, the “Nerve conduction velocity (m/sec) 4 weeks later” value in assay [1] (30µg/Kg/day orally for 4 weeks) worked out at 38.1 ± 1.0 m/sec; in assay [1] (setting [3]), 37.5 ± 1.4 m/sec. Further, the “Improvements on nerve conduction velocity” value in assay [1] (both groups, 30µg/Kg/day and 300µg/Kg/day, after 4 weeks, in comparison with the control group of GK rats) is recorded as “Improvements on nerve conduction velocity were observed”.

Consider `CCCC[C@H](C)C[C@H](O)/C=C/[C@@H]1[C@H]2CC(CCCCC(=O)O)=C[C@H]2C[C@H]1O` [(17S)-17,20-dimethylisocarbacyclin, (17S)-17,20-dimethyl-9(0)-methano-Δ^6(9α)-prostaglandin I₁], for which the figures for the “Nerve conduction velocity (m/sec) Before administration” value in assay [2] (30µg/Kg/day group) and in assay [2] (300µg/Kg/day group) were 33.7 ± 1.2 m/sec and 35.0 ± 0.8 m/sec, respectively. For the same compound, the “Nerve conduction velocity (m/sec) 4 weeks later” value was determined as 40.5 ± 0.8 m/sec in assay [2] (30µg/Kg/day orally for 4 weeks) and 42.2 ± 0.9 m/sec in assay [2] (setting [3]).
